Data taken from patent US20260262635A1, “BAR COMPOSITION HAVING ENHANCED ANTIMICROBIAL ACTIVITY” (Conopco, Inc., d/b/a UNILEVER, priority 2021, published 2026).

Tested on: S. aureus ATCC 6538
Assay: Time-kill assay adapted from ASTM E2315-16, S. aureus
Assay type: cell-based
Conditions: S. aureus and E. coli, 30 seconds of contact
Method: Aqueous slurries were prepared whereby gratings from the bars made in the Samples of Table I were mixed with water to form a test solution containing 10% by weight of the initial bar component. In the second method, raw bar components, as depicted in the Samples in Table II, were mixed with water to form a test solution containing a total of 10% raw bar component to simulate an aqueous slurry of a bar composition. For each sample, aqueous slurries were mixed at 50° C. to simulate customary consumer washing conditions.
As to the microbes, E. coli ATCC 10536 and S. aureus ATCC 6538 were used in this study to represent Gram negative and Gram positive bacteria, respectively. The bacteria were stored at −80° C. Fresh isolates were cultured twice on Tryptic Soy Agar plates for 24 hours at 37° C. before each experiment.
Test solutions were prepared. In the first method and for the aqueous slurries made from the bar compositions described in Table I, a composition (typically containing up to 15% surfactant) was mixed with water to form a test solution containing 10% weight percent of the initial formulation. In the second method and for the raw ingredients combined in Table II, the same were mixed with water at levels that simulate a 10% dilution of the slurries. In each assessment, test solutions were heated and mixed at […]
The log reduction was calculated using the formula: […]

Structure (SMILES): CC(O)C(=O)O (stereo not shown) [lactic acid, Lactic acid]
- antimicrobial reduction / efficacy (in words): performed poorly against S. aureus
